Test [1] addresses Cyclin-dependent kinase 9 (Homo sapiens, UniProt P50750).
In test [2] the target is Serine/threonine-protein kinase pim-1 (Homo sapiens, UniProt P11309). In words: Inhibition of PIM1 (unknown origin).

Structures are written as SMILES.

Here are results for 3 molecules from ChEMBL document CHEMBL2417410, “Selectivity data: assessment, predictions, concordance, and implications” (J Med Chem, 2013).

For orientation: IC50 means the point on the concentration scale where inhibition reaches its midpoint. A higher IC50 goes with weaker potency in that assay.

Chain of Cyclin-dependent kinase 9 (P50750 whole entry): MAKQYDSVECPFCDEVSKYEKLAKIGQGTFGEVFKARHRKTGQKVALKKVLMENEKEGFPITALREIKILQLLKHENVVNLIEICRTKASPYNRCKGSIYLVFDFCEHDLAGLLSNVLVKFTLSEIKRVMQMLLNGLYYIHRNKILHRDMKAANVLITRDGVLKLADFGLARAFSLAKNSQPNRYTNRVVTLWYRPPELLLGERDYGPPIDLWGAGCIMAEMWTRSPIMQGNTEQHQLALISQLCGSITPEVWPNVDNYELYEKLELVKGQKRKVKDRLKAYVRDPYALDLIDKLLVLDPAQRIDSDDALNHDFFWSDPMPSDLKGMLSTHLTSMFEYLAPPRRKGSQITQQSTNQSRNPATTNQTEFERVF
Chain of Serine/threonine-protein kinase pim-1 (P11309 whole entry): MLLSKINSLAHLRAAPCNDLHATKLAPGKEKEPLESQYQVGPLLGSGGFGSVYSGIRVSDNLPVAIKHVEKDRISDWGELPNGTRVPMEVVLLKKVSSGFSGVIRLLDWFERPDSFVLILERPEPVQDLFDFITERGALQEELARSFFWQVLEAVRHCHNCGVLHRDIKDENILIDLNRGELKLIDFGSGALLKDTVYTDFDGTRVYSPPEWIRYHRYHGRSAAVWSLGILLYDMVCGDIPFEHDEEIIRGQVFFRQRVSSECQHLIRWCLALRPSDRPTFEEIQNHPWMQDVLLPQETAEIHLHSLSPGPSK

For the molecule `NC(=O)c1cc(-c2ccnc(N)n2)[nH]c1-c1ccc(Cl)cc1Cl`, the IC50 in test [1] was 0.01 µM.

`CN1CCN(c2nc(C3=C(c4c[nH]c5ccccc45)C(=O)NC3=O)c3ccccc3n2)CC1` [SOTRASTAURIN] gave an IC50 in test [2] of 0.0501 µM.

For `Cc1n[nH]c2ccc(-c3cccnc3)cc12`, the IC50 in test [1] was 0.631 µM.
